Values joined by “and” are separate entries in the source; they are usually repeats but may differ in a detail not shown here. Identical values can stand only once. No end group written: not given here.
What follows are compounds tested against T1, recombinant human NRP-1 (hNRP-1) (Homo sapiens, UniProt O14786) (assay: chemoluminescence affinity detection: displacement of biotinylated VEGF165A from coated NRP-1). Conditions: VEGF 165A displacement from NRP-1; compounds at 12.5-100 µM; ± standard (fitting) error.
T1 construct: purchased BioLegend, San Diego, CA, USA
T1 sequence (O14786 22-923): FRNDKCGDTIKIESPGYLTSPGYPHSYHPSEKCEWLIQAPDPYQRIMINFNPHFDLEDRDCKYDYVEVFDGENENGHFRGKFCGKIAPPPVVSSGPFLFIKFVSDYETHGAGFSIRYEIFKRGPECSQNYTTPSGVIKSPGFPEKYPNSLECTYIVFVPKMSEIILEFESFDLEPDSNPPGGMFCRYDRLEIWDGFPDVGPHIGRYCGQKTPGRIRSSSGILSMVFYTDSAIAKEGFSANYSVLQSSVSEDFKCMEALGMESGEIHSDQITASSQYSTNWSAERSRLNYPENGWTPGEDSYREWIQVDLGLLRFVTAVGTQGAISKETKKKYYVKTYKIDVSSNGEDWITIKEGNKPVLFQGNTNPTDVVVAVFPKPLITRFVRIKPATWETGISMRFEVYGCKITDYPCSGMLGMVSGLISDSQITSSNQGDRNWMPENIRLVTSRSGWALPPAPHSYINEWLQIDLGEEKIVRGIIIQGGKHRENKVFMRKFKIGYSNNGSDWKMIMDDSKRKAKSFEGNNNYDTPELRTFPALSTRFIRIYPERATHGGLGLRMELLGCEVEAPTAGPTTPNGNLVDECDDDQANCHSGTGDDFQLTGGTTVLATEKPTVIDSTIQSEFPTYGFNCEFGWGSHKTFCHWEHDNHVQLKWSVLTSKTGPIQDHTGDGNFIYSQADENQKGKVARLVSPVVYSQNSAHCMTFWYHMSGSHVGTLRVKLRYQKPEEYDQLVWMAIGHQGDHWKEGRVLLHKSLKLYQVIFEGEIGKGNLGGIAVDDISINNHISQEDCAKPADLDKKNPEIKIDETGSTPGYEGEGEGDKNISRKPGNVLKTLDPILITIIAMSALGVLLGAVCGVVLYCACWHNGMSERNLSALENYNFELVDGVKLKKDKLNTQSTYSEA
Format: binding
`N=C(N)NCCCC[C@H](N)C(=O)NCCCC[C@@H](N)C(=O)NCc1cn(Cc2cn([C@@H](CCCNC(=N)N)C(=O)O)nn2)nn1` [1D, H-D-Lys(Har)-Gly[Trl]Gly[Trl]Arg-OH] gave an IC50 of 63.6 ± 2.3 µM.
`CC(C)(NC(=O)[C@H](N)CCCCNC(=O)[C@@H](N)CCCCNC(=N)N)c1cn(C(C)(C)c2cn([C@@H](CCCNC(=N)N)C(=O)O)nn2)nn1` [3D, H-D-Lys(Har)-Mba[Trl]Mba[Trl]Arg-OH] was tested, and the IC50 was 91 µM and 90.5 µM.
With `CC(C)(c1cn([C@@H](CCCNC(=N)N)C(=O)O)nn1)n1cc(CNC(=O)[C@H](N)CCCCNC(=O)[C@@H](N)CCCCNC(=N)N)nn1` [2D, H-D-Lys(Har)-Gly[Trl]Mba[Trl]Arg-OH] the IC50 was 69.4 ± 4 µM.
For `N=C(N)NCCCC[C@H](N)C(=O)NCCCC[C@H](N)C(=O)NCc1cn(Cc2cn([C@@H](CCCNC(=N)N)C(=O)O)nn2)nn1` [1L, H-Lys(Har)-Gly[Trl]Gly[Trl]Arg-OH], the IC50 was 68.5 ± 3.3 µM.
Compound `CC(C)(c1cn([C@@H](CCCNC(=N)N)C(=O)O)nn1)n1cc(CNC(=O)[C@@H](N)CCCCNC(=O)[C@@H](N)CCCCNC(=N)N)nn1` [2L, H-Lys(Har)-Gly[Trl]Mba[Trl]Arg-OH] has an IC50 of 87.5 ± 3.3 µM.
`CC(C)(NC(=O)[C@H](N)CCCCNC(=O)[C@@H](N)CCCCNC(=N)N)c1cn(Cc2cn([C@@H](CCCNC(=N)N)C(=O)O)nn2)nn1` [4D, H-D-Lys(Har)-Mba[Trl]Gly[Trl]Arg-OH] was tested, and the IC50 was 36 µM and 35.6 µM.
`CC(C)(NC(=O)[C@@H](N)CCCCNC(=O)[C@@H](N)CCCCNC(=N)N)c1cn(C(C)(C)c2cn([C@@H](CCCNC(=N)N)C(=O)O)nn2)nn1` [3L, H-Lys(Har)-Mba[Trl]Mba[Trl]Arg-OH] was tested, and the IC50 was 23 µM and 23.4 µM.
“ATWLPPR [A7R, ATWLPPR, reference compound]” gave an IC50 of 31.2 ± 4.2 µM.
